For one test, the target named is T1, ABL T315I (Homo sapiens, UniProt P00519, T315I).
T1 construct: purchased Invitrogen
In words: In vitro kinase assay (Z′-LYTE). The test is classed as biochemical. The conditions noted are these: read-out: % of inhibition of the kinase compared to the control. The essentials: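 Percent inhibition is derived from a coupled-enzyme fluorescence format in which unphosphorylated FRET peptide is preferentially proteolysed. Compounds are screened once at 100 nM (10 μM against ABL T315I) in 1% DMSO, with ATP at its apparent Km.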

For a further test, the target named is T2, KDR (VEGFR2) (Homo sapiens, UniProt P35968).
T2 construct: purchased Invitrogen
T2 sequence (P35968 20-1356): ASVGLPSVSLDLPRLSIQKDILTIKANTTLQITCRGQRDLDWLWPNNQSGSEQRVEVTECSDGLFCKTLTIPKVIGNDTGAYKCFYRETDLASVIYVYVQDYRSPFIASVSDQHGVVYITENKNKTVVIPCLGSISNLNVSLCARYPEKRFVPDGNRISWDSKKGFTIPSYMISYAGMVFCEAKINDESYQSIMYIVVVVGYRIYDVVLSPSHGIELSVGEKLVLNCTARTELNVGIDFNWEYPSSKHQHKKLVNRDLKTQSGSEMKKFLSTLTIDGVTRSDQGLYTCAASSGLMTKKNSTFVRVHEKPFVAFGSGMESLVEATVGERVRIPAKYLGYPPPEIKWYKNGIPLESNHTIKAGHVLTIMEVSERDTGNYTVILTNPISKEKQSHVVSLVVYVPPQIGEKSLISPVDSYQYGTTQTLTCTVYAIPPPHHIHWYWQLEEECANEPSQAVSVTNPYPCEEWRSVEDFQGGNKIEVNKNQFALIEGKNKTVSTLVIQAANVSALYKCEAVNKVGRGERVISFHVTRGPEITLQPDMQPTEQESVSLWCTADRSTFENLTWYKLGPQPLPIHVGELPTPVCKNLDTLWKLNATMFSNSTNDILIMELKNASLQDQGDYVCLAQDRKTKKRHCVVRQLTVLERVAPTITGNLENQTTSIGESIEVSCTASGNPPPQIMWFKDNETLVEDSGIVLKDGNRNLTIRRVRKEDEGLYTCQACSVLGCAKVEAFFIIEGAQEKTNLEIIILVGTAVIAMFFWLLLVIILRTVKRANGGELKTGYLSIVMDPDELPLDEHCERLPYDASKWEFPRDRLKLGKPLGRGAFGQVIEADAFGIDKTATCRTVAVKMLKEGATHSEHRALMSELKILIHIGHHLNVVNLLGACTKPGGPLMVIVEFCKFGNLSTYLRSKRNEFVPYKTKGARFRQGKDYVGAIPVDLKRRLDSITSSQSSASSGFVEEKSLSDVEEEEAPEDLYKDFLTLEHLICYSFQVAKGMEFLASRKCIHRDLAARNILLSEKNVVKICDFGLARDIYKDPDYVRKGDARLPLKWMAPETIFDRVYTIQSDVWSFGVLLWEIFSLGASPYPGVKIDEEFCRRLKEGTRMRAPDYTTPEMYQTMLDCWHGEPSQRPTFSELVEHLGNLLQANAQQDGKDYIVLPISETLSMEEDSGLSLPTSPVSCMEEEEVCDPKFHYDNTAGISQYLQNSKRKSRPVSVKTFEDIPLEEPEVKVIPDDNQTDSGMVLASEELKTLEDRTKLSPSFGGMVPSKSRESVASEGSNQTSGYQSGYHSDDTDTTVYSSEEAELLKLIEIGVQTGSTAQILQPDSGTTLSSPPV
Briefly: In vitro kinase assay (Z′-LYTE). The class given is biochemical. The conditions noted are these: read-out: % of inhibition of the kinase compared to the control. A digest of the protocol:
(§1)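 Z′-LYTE FRET assay: kinase phosphorylation of a dual-fluorophore peptide protects it from protease cleavage, and the donor/acceptor emission ratio after 400 nm excitation tracks progress. Compounds were tested at 100 nM, or at 10 μM against ABL T315I, in 1% DMSO final, with ATP at apparent Km.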

A further test deals with T3, BRAF (Homo sapiens, UniProt P15056).
T3 construct: purchased Invitrogen
T3 sequence (P15056 whole entry): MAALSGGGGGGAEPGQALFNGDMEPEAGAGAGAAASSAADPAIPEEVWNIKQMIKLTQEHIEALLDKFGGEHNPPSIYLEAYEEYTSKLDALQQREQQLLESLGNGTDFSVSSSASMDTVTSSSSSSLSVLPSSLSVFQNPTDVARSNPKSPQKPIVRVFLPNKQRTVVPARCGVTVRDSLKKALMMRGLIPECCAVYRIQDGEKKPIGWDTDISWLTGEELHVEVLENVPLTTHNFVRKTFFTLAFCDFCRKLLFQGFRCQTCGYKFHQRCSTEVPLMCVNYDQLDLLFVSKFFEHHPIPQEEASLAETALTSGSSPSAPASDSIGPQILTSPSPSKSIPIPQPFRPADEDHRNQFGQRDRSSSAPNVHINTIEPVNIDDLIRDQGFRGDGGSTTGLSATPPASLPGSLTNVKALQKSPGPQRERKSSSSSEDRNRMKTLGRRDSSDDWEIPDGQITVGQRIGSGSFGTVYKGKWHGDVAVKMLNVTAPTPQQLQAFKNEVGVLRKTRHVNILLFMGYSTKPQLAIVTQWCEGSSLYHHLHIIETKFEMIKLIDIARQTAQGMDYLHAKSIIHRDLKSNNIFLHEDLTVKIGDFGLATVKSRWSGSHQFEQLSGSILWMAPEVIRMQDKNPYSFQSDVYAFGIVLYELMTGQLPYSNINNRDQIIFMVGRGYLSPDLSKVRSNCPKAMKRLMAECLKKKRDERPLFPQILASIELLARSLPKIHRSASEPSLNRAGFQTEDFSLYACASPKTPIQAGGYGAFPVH
Briefly: In vitro kinase assay (Z′-LYTE). The conditions noted are these: compound 100 nM; ATP 100 μM; read-out: % of inhibition of the kinase compared to the control. The class given is biochemical. A digest of the protocol: as §1

The target in another test is T4, ABL (Homo sapiens, UniProt P00519).
T4 construct: purchased Invitrogen
In words: In vitro kinase assay (Z′-LYTE). The class given is biochemical. The conditions noted are these: read-out: % of inhibition of the kinase compared to the control.

A further test has as its target T5, VEGFR1 (Homo sapiens, UniProt P17948).
T5 construct: purchased Invitrogen
Briefly: In vitro kinase assay (Z′-LYTE). The class given is biochemical. The conditions noted are these: read-out: % of inhibition of the kinase compared to the control. The essentials:
as §1

For another test, the target named is T6, FGFR1 (Homo sapiens, UniProt P11362).
T6 construct: purchased Invitrogen
Briefly: In vitro kinase assay (Z′-LYTE). The test is classed as biochemical. The conditions noted are these: read-out: % of inhibition of the kinase compared to the control. A digest of the protocol:
as §1

In another test the target is T7, PDGFRB (Homo sapiens, UniProt P09619).
T7 construct: purchased Invitrogen
In words: In vitro kinase assay (Z′-LYTE). The class given is biochemical. The settings on record: read-out: % of inhibition of the kinase compared to the control. The essentials:
as §1

In a further test the target is T8, PDGFRA (PDGFR alpha) (Homo sapiens, UniProt P16234).
T8 construct: purchased Invitrogen
T8 sequence (P16234 24-1089): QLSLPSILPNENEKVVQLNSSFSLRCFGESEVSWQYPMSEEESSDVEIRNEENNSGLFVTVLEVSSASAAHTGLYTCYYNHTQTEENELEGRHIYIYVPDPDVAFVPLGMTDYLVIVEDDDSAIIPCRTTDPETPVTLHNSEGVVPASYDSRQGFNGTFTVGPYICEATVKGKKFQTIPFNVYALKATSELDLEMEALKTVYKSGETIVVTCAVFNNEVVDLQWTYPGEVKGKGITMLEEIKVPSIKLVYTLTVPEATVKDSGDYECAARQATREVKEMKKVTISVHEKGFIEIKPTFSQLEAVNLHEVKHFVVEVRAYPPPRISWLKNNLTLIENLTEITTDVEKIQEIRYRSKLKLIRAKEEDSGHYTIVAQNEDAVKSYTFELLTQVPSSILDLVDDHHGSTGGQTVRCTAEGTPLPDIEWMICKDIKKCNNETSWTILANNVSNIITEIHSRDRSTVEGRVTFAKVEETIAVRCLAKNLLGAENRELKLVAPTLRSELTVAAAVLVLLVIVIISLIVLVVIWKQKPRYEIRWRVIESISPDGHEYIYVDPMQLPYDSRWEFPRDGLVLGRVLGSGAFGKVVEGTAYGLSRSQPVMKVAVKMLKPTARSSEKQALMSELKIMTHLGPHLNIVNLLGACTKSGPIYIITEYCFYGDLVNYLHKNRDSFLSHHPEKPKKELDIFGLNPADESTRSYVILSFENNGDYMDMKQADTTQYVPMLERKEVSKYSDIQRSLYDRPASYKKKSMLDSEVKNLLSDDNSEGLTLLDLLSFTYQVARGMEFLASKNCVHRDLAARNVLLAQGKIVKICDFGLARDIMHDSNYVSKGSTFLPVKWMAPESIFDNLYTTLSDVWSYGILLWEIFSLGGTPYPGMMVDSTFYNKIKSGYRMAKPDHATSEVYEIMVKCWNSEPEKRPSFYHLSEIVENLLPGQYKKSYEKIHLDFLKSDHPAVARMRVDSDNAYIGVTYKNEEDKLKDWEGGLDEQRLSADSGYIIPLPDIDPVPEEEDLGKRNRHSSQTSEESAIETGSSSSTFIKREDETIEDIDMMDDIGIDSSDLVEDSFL
In words: In vitro kinase assay (Z′-LYTE). The test is classed as biochemical. The settings on record: read-out: % of inhibition of the kinase compared to the control. A digest of the protocol: as §1

The next test concerns the target T9, FGFR2 (Homo sapiens, UniProt P21802).
T9 construct: purchased Invitrogen
Briefly: In vitro kinase assay (Z′-LYTE). The class given is biochemical. The settings on record: read-out: % of inhibition of the kinase compared to the control. The essentials:
as §1

The next test concerns the target T10, SRC (Homo sapiens, UniProt P12931).
T10 construct: purchased Invitrogen
Briefly: In vitro kinase assay (Z′-LYTE). The class given is biochemical. The conditions noted are these: read-out: % of inhibition of the kinase compared to the control. The essentials:
as §1

The target in another test is T11, EGFR (ErbB1) T790M L858R (Homo sapiens, UniProt P00533, L858R/T790M).
T11 construct: purchased Invitrogen
In words: In vitro kinase assay (Z′-LYTE). The class given is biochemical. The conditions noted are these: read-out: % of inhibition of the kinase compared to the control. A digest of the protocol: as §1

The target in the next test is T12, EGFR (ErbB1) (Homo sapiens, UniProt P00533).
T12 construct: purchased Invitrogen
Briefly: In vitro kinase assay (Z′-LYTE). The class given is biochemical. The conditions noted are these: read-out: % of inhibition of the kinase compared to the control. The essentials:
as §1

In another test the test system is HUVEC. In words: In vitro cell proliferation assay (MTT). The test is classed as cell-based. The conditions noted are these: Homo sapiens, 72 h. The method, then:
Cancer cell lines (5×10^3 cells per well) or HUVEC (1×10^4 cells per well) or HRMEC (1×10^4 cells per well) were distributed in 96-well plates and incubating in duplicate with escalating concentrations (10 nM to 3 μM) of compounds for 72 hr. Cell proliferation was measured using MTT (3 [4,5-dimethylthiazol-2-yl]-2,5-diphenyltetrazolium bromide).

The next test relates to HT29. Briefly: In vitro cell proliferation assay (MTT). The conditions noted are these: Homo sapiens, HT-29, 72 h. The class given is cell-based. The essentials:
(§2)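 Seed 5×10^3 cells per well. Add compound at rising doses (10 nM to 3 μM), run in duplicate. Incubate 72 hr, then quantify growth with MTT.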

Another test concerns A549. Briefly: In vitro cell proliferation assay (MTT). The class given is cell-based. The settings on record: Homo sapiens, A549, 72 h. The essentials: as §2
The next test concerns HepG2. Briefly: In vitro cell proliferation assay (MTT). The class given is cell-based. The settings on record: Homo sapiens, HepG2, 72 h. A digest of the protocol:
as §2

A further test has as its system HRMEC. In words: In vitro cell proliferation assay (MTT). The class given is cell-based. The conditions noted are these: 72 h. The essentials:
as §2

Another test concerns BxPC-3. Briefly: In vitro cell proliferation assay (MTT). The class given is cell-based. The conditions noted are these: Homo sapiens, BXPC-3, 72 h. A digest of the protocol:
as §2

A further test concerns H1975. Briefly: In vitro cell proliferation assay (MTT). The test is classed as cell-based. The settings on record: Homo sapiens, NCI-H1975, 72 h. The essentials:
as §2

Another test deals with HuCCT1. Briefly: In vitro cell proliferation assay (MTT). The test is classed as cell-based. The conditions noted are these: Homo sapiens, HuCCT-1, 72 h. A digest of the protocol:
as §2

For another test, the system named is HuH6 Clone 5. In words: In vitro cell proliferation assay (MTT). The class given is cell-based. The conditions noted are these: HUH-6-clone5, 72 h. A digest of the protocol: as §2
The next test relates to HuH7. Briefly: In vitro cell proliferation assay (MTT). The conditions noted are these: Homo sapiens, Huh-7, 72 h. The class given is cell-based. The essentials: as §2
In another test the test system is MDA-MB-231. In words: In vitro cell proliferation assay (MTT). The test is classed as cell-based. The conditions noted are these: Homo sapiens, MDA-MB-231, 72 h. The essentials: as §2
The subject of a further test is HeLa. In words: In vitro cell proliferation assay (MTT). The class given is cell-based. The settings on record: Homo sapiens, 72 h. A digest of the protocol: as §2
Another test deals with Caki-2. Briefly: In vitro cell proliferation assay (MTT). The test is classed as cell-based. The conditions noted are these: Homo sapiens, CAKI-2, 72 h. The essentials: as §2

Each structure is given as a SMILES string.

T9 sequence (P21802 22-821): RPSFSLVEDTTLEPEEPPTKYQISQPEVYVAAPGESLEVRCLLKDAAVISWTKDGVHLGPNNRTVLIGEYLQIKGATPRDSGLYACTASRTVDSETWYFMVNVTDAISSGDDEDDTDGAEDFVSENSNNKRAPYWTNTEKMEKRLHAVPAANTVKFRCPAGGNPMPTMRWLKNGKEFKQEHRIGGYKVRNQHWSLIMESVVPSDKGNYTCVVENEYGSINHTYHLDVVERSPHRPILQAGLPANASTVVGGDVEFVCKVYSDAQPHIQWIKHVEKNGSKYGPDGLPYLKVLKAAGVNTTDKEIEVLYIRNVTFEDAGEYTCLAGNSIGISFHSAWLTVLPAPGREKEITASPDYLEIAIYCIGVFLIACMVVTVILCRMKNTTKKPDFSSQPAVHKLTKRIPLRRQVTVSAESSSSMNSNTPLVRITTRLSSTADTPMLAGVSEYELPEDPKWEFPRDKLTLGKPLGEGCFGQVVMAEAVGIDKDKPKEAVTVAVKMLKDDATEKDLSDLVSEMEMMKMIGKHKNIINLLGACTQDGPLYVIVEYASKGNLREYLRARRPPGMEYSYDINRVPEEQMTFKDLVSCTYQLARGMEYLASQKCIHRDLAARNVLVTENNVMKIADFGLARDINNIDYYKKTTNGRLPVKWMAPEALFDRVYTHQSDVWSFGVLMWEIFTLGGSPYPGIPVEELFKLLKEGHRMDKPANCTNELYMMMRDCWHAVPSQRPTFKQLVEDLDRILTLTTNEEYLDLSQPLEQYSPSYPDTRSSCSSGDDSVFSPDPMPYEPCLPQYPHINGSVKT
T10 sequence (P12931 whole entry): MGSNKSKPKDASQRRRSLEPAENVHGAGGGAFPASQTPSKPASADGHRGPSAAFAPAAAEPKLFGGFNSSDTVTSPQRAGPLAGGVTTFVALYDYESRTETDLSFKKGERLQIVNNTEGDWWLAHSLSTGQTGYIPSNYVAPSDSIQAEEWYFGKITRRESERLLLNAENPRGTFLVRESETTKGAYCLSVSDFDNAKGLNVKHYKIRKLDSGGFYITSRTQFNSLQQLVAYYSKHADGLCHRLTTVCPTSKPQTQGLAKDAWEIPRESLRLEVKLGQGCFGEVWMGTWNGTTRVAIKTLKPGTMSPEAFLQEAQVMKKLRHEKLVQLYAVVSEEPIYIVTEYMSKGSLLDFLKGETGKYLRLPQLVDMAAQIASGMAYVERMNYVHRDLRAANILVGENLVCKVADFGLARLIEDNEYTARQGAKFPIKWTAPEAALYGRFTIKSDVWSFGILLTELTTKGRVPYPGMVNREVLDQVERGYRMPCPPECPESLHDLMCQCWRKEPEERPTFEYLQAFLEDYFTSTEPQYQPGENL

`COC(=O)c1cc2cc(NCc3cc(NC(=O)c4ccc5[nH]nnc5c4)ccc3C)cnc2[nH]1` [OR0616]: the inhibition (usually the relative decrease from the control value, in per cent) at 10 µM at ABL T315I is < 50%; on ABL, ≥ 50%. Further, the inhibition at 0.1 µM on KDR (VEGFR2) is < 50%; on BRAF, ≥ 50%; on VEGFR1, < 50%; on FGFR1 it was < 50%; on PDGFRB, ≥ 50%; at PDGFRA (PDGFR alpha), ≥ 50%. Also, the inhibition at 0.1 µM on FGFR2, at SRC, at EGFR (ErbB1) T790M L858R and at EGFR (ErbB1) was < 50% in each case. In addition, the EC50 in the test on HUVEC, in the test on HT29, in the test with A549, in the test on HepG2, in the test with HRMEC and in the test with BxPC-3 was ≥ 1000 nM each time. In the test with H1975, the EC50 (as a rule, the concentration giving half of the maximal effect) is ≥ 1000 nM.
Regarding `COC(=O)c1cc2cc(NCc3cc(NC(=O)c4ccc5[nH]ccc5c4)ccc3C)cnc2[nH]1` [OR0617], the inhibition at 10 µM was < 50% at ABL T315I and ≥ 50% on ABL. In addition, the inhibition at 0.1 µM at KDR (VEGFR2) was ≥ 50%; on BRAF it was ≥ 50%; on VEGFR1 it was < 50%; at FGFR1 it was < 50%; on PDGFRB it was < 50%; on PDGFRA (PDGFR alpha), ≥ 50%. Also, the inhibition at 0.1 µM is < 50% at FGFR2, ≥ 50% at SRC, < 50% on EGFR (ErbB1) T790M L858R and < 50% on EGFR (ErbB1). Moreover, the EC50 was 100 to 1000 nM in the test with HUVEC; ≥ 1000 nM in the test with HT29; ≥ 1000 nM with A549; 100 to 1000 nM with HepG2; ≥ 1000 nM with HRMEC; ≥ 1000 nM with HuCCT1. The EC50 in the test on BxPC-3 and in the test on H1975 was ≥ 1000 nM each time.
On to `COC(=O)c1cc2cc(NC(=O)c3cc(NC(=O)c4ccc(CN5CCN(C)CC5)c(C(F)(F)F)c4)ccc3C)cnc2[nH]1` [OR0744], for which the inhibition at 0.1 µM at KDR (VEGFR2), on BRAF, on PDGFRA (PDGFR alpha), on FGFR2, at SRC and on EGFR (ErbB1) T790M L858R was ≥ 50% throughout. Also, on EGFR (ErbB1), the inhibition at 0.1 µM was ≥ 50%. Besides, the EC50 is 100 to 1000 nM with HUVEC; 100 to 1000 nM in the test on HT29; ≥ 1000 nM in the test on HuH6 Clone 5; 100 to 1000 nM in the test with A549; 100 to 1000 nM in the test with HepG2; 100 to 1000 nM in the test with HRMEC. Besides, the EC50 in the test on HuH7 is 100 to 1000 nM; in the test with MDA-MB-231 it was 100 to 1000 nM; with HuCCT1, ≥ 1000 nM; in the test on HeLa, 100 to 1000 nM; in the test with H1975, ≥ 1000 nM.
For the compound `CCN(CC)CCNC(=O)c1c(C)[nH]c(/C=C2\C(=O)Nc3ccc(F)cc32)c1C` [Sunitinib, reference compound], the EC50 with Caki-2 and in the test with BxPC-3 was ≥ 1000 nM throughout.
